According to ChEMBL document CHEMBL1201862, “PubChem BioAssay data set” (2004):
Activity calls are given as the source filed them.

Tests used:
Cytochrome P450 2C9 = Cytochrome P450 2C9 (Homo sapiens, UniProt P11712)
[1] = target: T1, Ubiquitin-conjugating enzyme E2 N (Homo sapiens, UniProt P61088); assay type: functional;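 note: Dose-response confirmation in a TR-FRET assay detecting UBC13-driven polyubiquitin chain formation, inhibition measured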
T1 sequence (P61088 whole entry): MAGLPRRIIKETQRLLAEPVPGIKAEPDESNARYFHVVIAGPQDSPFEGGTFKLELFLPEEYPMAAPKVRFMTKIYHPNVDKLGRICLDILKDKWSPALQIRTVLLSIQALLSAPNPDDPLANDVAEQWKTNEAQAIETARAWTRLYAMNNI

[2] = Luminescence Cell-Based Dose Retest to Confirm Inhibitors of Cancer Stem Cells. [Related pubchem assays (depositor defined):AID2717, AID2721]; assay type: functional; conditions: Homo sapiens
[3] = target: T2, Mannose-6-phosphate isomerase (Homo sapiens, UniProt P34949); test: human PMI inhibitors, high substrate, primary screen, biochemical, fluorescence intensity, high mannose 6-phosphate (AID 1220)
T2 sequence (P34949 whole entry): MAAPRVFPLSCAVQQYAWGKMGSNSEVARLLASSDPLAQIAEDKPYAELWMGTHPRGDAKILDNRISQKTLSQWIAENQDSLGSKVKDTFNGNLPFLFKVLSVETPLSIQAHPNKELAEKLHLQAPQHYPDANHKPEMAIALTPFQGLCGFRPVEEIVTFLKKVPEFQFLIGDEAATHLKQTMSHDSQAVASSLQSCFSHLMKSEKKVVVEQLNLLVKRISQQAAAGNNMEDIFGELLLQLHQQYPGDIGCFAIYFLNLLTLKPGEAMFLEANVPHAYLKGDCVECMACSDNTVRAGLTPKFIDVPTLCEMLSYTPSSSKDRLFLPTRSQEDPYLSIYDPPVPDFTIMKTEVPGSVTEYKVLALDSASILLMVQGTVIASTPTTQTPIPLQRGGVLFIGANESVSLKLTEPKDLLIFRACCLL

cells [4] = assay type: functional, cell-based
cells [5] = assay type: functional, cell-based; remark: listed apart in the source
Cytochrome P450 2C19 = Cytochrome P450 2C19 (Homo sapiens, UniProt P33261); test: Cytochrome panel assay with activity outcomes. Panel member name: p450-cyp2c19 Compounds with AC50 equal or less than 10 uM are considered active; assay type: functional; conditions: read-out: AC50
Protein RecA = target: T3, Protein RecA (Mycobacterium tuberculosis, UniProt P9WHJ3); test: Fluorescence Cell-Free Homogeneous Dose Retest to Identify Inhibitors of RecA-Intein Splicing Activity. [Related pubchem assays (depositor defined):AID2097, AID2223, AID489010, AID492950]; assay type: functional
T3 sequence (P9WHJ3 whole entry): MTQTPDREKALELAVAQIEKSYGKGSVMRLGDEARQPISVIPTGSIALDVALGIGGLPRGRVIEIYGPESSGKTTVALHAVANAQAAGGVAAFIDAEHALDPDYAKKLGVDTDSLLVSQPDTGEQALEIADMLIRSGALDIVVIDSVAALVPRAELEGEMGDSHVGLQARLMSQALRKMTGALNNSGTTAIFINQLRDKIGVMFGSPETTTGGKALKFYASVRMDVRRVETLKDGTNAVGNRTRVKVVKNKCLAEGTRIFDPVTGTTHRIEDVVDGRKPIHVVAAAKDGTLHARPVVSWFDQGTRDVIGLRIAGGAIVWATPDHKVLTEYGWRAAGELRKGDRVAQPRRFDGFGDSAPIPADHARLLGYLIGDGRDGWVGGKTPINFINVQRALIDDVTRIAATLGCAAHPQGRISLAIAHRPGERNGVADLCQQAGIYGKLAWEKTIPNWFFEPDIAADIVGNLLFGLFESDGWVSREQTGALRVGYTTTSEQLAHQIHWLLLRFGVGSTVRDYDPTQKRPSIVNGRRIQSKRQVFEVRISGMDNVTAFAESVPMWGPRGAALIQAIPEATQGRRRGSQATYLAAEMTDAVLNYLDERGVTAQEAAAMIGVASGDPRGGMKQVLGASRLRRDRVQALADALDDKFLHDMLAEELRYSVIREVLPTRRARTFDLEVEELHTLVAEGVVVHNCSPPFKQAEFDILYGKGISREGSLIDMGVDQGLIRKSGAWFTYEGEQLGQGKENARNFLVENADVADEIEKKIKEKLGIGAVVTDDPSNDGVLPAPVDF

Streptokinase A = target: T4, Streptokinase A (Streptococcus pyogenes serotype M1, UniProt P10520); test: S. pyogenes streptokinase expression inhibitors, potency, dose response, plasminogen activation absorbance, OD405 (AID 1914); assay type: functional, Streptococcus pyogenes M1 GAS;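 note: secreted streptokinase activity via plasminogen activation per viability signal from cell pellet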
T4 sequence (P10520 whole entry): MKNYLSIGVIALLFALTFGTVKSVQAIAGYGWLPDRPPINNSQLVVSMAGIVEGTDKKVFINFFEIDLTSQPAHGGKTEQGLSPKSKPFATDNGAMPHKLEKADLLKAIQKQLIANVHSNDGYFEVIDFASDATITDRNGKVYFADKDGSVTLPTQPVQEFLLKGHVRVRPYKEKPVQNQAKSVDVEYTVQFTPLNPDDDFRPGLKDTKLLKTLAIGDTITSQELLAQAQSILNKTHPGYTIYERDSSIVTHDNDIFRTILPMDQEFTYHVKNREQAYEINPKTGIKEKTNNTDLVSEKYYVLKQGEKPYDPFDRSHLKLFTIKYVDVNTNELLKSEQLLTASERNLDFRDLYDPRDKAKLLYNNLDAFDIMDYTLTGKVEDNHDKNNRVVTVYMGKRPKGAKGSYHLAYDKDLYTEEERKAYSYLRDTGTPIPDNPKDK

Streptococcus = test: Group A Streptococcus viability loss, dose response, counter-screen for streptokinase expression inhibitor project, luminescence, BacTiterGlo (AID 1915); assay type: functional, organism-based;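 note: potency for reduction of bacterial viability or growth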
[6] = test system: Streptococcus sp. 'group A'; test: growth inhibition of control SK(-) GAS strain, dose response, counter-screen for streptokinase expression inhibitor project, luminescence, kanamycin, BacTiterGlo, confirmation (AID 1900); assay type: functional, organism-based
[7] = target: T5, Replicative DNA helicase DnaB (Mycobacterium tuberculosis, UniProt P9WMR3); test: DnaB intein splicing inhibitors, dose response, biochemical, cell-free fluorescence (AID 449749); assay type: functional
T5 sequence (P9WMR3 whole entry): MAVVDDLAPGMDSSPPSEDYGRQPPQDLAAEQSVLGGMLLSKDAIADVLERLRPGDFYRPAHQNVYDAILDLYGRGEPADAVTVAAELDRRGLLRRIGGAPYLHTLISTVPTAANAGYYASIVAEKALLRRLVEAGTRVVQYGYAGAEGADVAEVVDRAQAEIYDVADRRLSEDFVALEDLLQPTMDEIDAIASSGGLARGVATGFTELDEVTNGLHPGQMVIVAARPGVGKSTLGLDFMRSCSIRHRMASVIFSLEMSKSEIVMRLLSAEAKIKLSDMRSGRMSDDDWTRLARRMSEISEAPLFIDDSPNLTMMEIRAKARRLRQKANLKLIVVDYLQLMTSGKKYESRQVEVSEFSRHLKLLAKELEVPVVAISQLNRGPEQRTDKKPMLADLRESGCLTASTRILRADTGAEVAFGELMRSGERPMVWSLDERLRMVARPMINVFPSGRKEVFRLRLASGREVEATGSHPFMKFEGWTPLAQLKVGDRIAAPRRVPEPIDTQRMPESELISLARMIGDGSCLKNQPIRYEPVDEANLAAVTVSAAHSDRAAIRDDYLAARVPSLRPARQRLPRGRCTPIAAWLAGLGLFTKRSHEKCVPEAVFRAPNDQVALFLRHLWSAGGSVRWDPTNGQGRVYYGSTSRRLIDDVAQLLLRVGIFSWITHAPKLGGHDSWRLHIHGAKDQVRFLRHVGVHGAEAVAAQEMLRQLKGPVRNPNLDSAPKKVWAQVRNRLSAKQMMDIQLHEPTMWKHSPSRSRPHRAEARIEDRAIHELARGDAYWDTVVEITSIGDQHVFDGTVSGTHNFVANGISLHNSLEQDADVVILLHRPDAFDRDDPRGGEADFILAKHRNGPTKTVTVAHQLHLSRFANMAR

[8] = target: Glyceraldehyde-3-phosphate dehydrogenase (Homo sapiens, UniProt P04406)
[9] = Luminescence Cell-Based Dose Response HTS to Identify Activators of Luciferase Translation or Activity in H4 […] Cells. [Related pubchem assays: 1829 (Project Summary), 1814 (Primary HTS)]; assay type: functional
H4 = test: Luminescence Cell-Based Dose Response HTS to Identify Activators of 5'UTR Stem-Loop Driven Prion Protein mRNA Translation in H4 Neuroglioblastoma Cells. [Related pubchem assays: 1829 (Project Summary), 1814 (Primary HTS)]; assay type: functional; conditions: Homo sapiens
[10] = P. falciparum Dd2 growth inhibitors, dose response, SYBR Green, cherry-picked samples (AID 1159567); assay type: functional, cell-based
[11] = target: T6, Heat shock factor protein 1 (Mus musculus, UniProt P38532); test: inhibition of MG132-induced HSE-luciferase signal, confirmation, cell-based, NIH3T3, luminescence, dose retest (AID 2382); assay type: functional;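 note: NIH3T3 fibroblasts with HSF1-driven luciferase reporter stressed by proteasome inhibitor MG132; luminescence from HSF1-driven luciferase expression after 8 hours of MG132 stress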
T6 sequence (P38532 whole entry): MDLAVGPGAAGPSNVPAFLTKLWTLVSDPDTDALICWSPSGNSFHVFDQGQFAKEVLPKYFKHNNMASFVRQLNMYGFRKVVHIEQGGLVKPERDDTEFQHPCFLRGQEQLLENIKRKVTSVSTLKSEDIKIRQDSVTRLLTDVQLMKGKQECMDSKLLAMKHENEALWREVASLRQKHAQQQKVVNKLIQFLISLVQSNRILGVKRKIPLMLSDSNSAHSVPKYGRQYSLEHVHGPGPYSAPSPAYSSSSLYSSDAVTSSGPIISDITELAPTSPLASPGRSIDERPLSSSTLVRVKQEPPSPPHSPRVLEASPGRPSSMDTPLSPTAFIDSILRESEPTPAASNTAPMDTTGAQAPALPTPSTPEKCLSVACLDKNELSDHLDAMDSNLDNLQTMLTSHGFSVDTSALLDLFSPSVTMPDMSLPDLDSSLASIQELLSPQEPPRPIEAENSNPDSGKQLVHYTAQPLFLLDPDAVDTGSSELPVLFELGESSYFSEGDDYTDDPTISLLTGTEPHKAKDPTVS

Sequence of Cytochrome P450 2C9 (P11712 whole entry): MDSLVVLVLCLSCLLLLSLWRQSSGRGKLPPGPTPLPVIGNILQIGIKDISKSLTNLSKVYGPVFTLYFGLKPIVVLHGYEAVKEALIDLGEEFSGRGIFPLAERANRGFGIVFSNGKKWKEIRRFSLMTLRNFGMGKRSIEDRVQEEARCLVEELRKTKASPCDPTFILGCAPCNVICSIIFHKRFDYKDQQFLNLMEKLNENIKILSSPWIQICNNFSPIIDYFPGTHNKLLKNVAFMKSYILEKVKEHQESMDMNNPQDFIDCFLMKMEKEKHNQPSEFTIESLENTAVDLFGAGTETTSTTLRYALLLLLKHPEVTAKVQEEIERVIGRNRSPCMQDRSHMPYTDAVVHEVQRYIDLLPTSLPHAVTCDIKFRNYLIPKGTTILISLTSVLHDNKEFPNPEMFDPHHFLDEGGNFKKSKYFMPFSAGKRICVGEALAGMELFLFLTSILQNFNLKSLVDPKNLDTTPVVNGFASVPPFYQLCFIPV
Sequence of Glyceraldehyde-3-phosphate dehydrogenase (P04406 whole entry): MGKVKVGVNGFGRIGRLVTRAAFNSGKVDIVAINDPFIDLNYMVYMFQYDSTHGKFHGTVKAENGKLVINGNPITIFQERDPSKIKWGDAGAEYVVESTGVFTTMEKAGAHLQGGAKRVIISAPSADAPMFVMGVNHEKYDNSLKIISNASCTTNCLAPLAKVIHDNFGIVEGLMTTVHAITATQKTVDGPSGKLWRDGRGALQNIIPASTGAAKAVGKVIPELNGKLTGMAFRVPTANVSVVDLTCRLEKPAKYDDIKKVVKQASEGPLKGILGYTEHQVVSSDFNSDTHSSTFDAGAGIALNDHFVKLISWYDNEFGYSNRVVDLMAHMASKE
Sequence of Cytochrome P450 2C19 (P33261 whole entry): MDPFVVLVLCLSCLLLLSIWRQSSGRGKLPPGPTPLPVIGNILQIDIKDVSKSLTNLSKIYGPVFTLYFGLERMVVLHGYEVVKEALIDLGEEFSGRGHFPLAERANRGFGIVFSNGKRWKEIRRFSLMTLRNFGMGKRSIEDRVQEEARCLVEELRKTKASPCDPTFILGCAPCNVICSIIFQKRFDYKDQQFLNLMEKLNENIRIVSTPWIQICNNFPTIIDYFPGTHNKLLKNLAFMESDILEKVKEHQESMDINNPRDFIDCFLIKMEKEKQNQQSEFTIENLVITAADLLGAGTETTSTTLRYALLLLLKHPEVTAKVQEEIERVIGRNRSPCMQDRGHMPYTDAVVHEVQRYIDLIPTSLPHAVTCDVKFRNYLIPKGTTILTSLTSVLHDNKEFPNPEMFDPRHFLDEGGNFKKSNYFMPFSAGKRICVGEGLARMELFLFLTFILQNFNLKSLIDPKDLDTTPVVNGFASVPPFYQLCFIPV

With `O=C(Cc1c[nH]c2ccccc12)OCC(=O)c1ccccc1` the AC50 (Cytochrome P450 2C9) was “inconclusive”.

In the case of `Cc1cc(N2CCN(C)CC2)nc2ccc(NC(=S)N3CCN(c4ccc(F)cc4)CC3)cc12`, the IC50 [1] is reported as > 20 µM (inactive) and the AC50 [2] is reported as 5.34 µM (active).

For `COc1ccc(-n2c(=S)[nH]c3sc4c(c3c2=O)CCc2ccccc2-4)cc1`, the IC50 [3] was 25.7 µM (active).

For `COc1cc(NC(=S)Nc2cccnc2)cc(OC)c1`, the IC50 [3] was > 50 µM (not active).

In the case of `NS(=O)(=O)c1ccc(NC(=O)c2ccc(CSc3ccccc3)o2)cc1`, the EC50 (cells [4]) is reported as > 350 µM (not active) and the EC50 (cells [5]) is reported as > 350 µM (not active).

With `COC(=O)Nc1ccc(=O)n(Cc2c(Cl)cccc2Cl)c1` the EC50 (cells [4]) was > 350 µM (not active) and the EC50 (cells [5]) was > 350 µM (not active).

For `COc1ccc(OC)c(CNC(=O)C2CCCN(S(=O)(=O)N3CCC(C)CC3)C2)c1` (stereo not drawn), the EC50 (cells [4]) was > 350 µM (not active) and the EC50 (cells [5]) was > 350 µM (not active).

For `Cc1cnc(CNc2ncnc3ccc(-c4ccccc4CN(C)C)cc23)cn1`, the AC50 (Cytochrome P450 2C19) was 31.6 µM (inconclusive) and the AC50 (Cytochrome P450 2C9) was “inconclusive”.

In the case of `CN1c2ccccc2C(C)(C)C12C=Nc1c(ccc3ccccc13)O2` (stereo not drawn), the EC50 (Protein RecA) is reported as 14.4 µM (active), the EC50 (Streptokinase A) is reported as 24 µM (active) and the IC50 [3] is reported as > 50 µM (not active). The EC50 (Streptococcus) was > 150 µM (not active), the EC50 [6] was 3.92 µM (active) and the AC50 [7] was 32.4 µM (active).

In the case of `COc1ccc(S(=O)(=O)Nc2cccnc2)c(OC)c1`, the IC50 [8] is reported as > 100 µM (not active).

For `CN(C)C1=C(Cl)C(=O)N(c2ccc(C(F)(F)F)cc2)C1=O`, the IC50 [8] was > 50 µM (inconclusive).

In the case of `COc1ccc(NC(=O)CSc2nc3c(c(-c4cccs4)c2C#N)CN(C)CC3)cc1OC`, the IC50 [3] is reported as > 50 µM (not active).

With `CCOC(=O)N1CCN(C(=O)CN(C)S(=O)(=O)c2ccc3c(c2)C(C)(C)C(=O)N3C)CC1` the AC50 (Cytochrome P450 2C19) was 3.16 µM (inconclusive) and the AC50 (Cytochrome P450 2C9) was “inconclusive”.

With `Cc1ccc(C)c(NC(=O)CN(C)C(=O)Cc2coc3cc(C)c(C)cc23)c1` the EC50 (cells [4]) was > 350 µM (not active) and the EC50 (cells [5]) was > 350 µM (not active).

With `NC[C@H](Cc1ccccc1)NCCc1cc(C(F)(F)F)cc(C(F)(F)F)c1` the IC50 [1] was > 20 µM (inactive).

In the case of `Cc1cc(/C=N/N2CCN(C)CC2)c(C)n1-c1ccc(Cl)cc1`, the EC50 (cells [4]) is reported as > 350 µM (not active) and the EC50 (cells [5]) is reported as > 350 µM (not active).

In the case of `CN(C)/N=C/C=C1\CCC/C(=C/c2cccs2)C1=O`, the EC50 [9] is reported as 0.452 µM (active), the EC50 (H4) is reported as > 120 µM (not active) and the EC50 (cells [4]) is reported as 5.27 µM (active). The EC50 (cells [5]) was > 350 µM (not active).

For `CCC(=O)N1[C@H](CO)[C@@H](c2ccccc2-c2cccc(C)c2)[C@@H]1C#N`, the AC50 [10] was > 42 µM (inactive).

With `C/C=C/c1ccc([C@@H]2[C@H](CO)N(CC3CC3)C23CN(C(=O)c2ccc4c(c2)OCO4)C3)cc1` the AC50 [10] was 4.44 µM (active).

With `O=C(NCCCCO)c1cc(-c2ccc(Cl)cc2Cl)n[nH]1` the IC50 [8] was > 10 µM (inconclusive).

In the case of `Cn1nc(N)c2c(-c3ccccc3)c(C#N)c(N)nc21`, the EC50 [11] is reported as > 195 µM (not active) and the IC50 [1] is reported as > 20 µM (inactive).
